Laboratory results taken from patent US9850283B2, “Macrocyclic inhibitors of the PD-1/PD-L1 and CD80(B7-1)/PD-L1 protein/protein interactions” (BRISTOL-MYERS SQUIBB COMPANY, priority 2013, dated 2017).
pIC50: −log10 of the molar value. Where two headings read alike, the source gives them in different places. Positions of bridges follow the written chain, without caps; N, C: chain ends. Non-standard residues stand in square brackets, D forms with d. Residues, ends and D or L forms follow the SMILES beside them. Pro(trans-4-F) = O=C(O)[C@@H]1C[C@@H](F)CN1; Hyp = O=C(O)[C@@H]1C[C@@H](O)CN1; NMeNle = CCCC[C@H](NC)C(=O)O; NMeA = CN[C@@H](C)C(=O)O; Dab = NCC[C@H](N)C(=O)O; Sar = CNCC(=O)O

How the values were obtained:
Human PD-L1/PD-1 = target: T1, Human PD-L1/PD-1 (Homo sapiens, UniProt Q9NZQ7); experiment: HTRF PD-1-Ig/PD-L1-His binding assay (human PD-L1)
T1 construct: made in house; host or cells: HEK293T
T1 sequence (Q9NZQ7 with tags, fused parts or gaps): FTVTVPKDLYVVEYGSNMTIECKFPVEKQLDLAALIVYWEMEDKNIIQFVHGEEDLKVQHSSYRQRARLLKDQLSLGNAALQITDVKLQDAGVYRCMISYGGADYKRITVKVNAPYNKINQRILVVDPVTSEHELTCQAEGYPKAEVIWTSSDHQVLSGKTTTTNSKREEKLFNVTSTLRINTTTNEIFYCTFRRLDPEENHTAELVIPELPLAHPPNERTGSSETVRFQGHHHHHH
Method in brief: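 Ig- and His-fused extracellular PD-1/PD-L1 binding in BSA/Tween-20 dPBS. HTRF with Eu anti-Ig (1 nM final) and APC anti-His (20 nM final).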

[1] = target: T2, LK35.2-hPD-L1 cells / PE-labeled PD-1-Ig (Homo sapiens, UniProt Q9NZQ7); experiment: LK35.2-hPD-L1 cell binding high-content screening assay; format: cell-based; conditions: cell binding assay, cell line not given
T2 construct: expressed in transfected cells; host or cells: LK35.2 mouse B cell line
T2 sequence (Q9NZQ7 19-290): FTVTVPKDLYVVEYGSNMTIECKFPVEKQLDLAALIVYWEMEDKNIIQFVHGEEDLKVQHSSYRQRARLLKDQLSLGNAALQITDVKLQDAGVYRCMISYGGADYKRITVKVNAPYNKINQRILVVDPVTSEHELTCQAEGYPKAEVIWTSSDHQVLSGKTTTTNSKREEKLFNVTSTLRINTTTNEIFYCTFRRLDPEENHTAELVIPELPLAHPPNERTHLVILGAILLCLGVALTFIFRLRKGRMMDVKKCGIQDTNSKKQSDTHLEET
Method in brief: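 Fluorescent PD-1-Ig binding to PD-L1-expressing LK35.2 cells, imaged after washing. Conditions: 1 nM PE-PD-1-Ig, 37 °C, 1 h, RPMI with 10% fetal calf serum.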

[2] = cluster symbol, read-out: HTRF IC50 cluster
[3] = cluster symbol, read-out: CBA IC50 cluster

| SMILES | pIC50 (Human PD-L1/PD-1; [2]) | pIC50 [1, 3] | pIC50 (Human PD-L1/PD-1; value given instead of cluster, read-out: HTRF IC50 value) | pIC50 ([1]; value given instead of cluster, read-out: CBA IC50 value) |
| --- | --- | --- | --- | --- |
| CCCC[C@H]1C(=O)N(C)[C@@H](CCCC)C(=O)N[C@@H](CCCNC(=N)N)C(=O)N[C@H](C(=O)NCC(N)=O)CSCC(=O)N[C@@H](Cc2ccccc2)C(=O)N(C)[C@@H](C)C(=O)N[C@@H](CC(N)=O)C(=O)N2C[C@H](F)C[C@H]2C(=O)N[C@@H](Cc2cnc[nH]2)C(=O)N[C@@H](CC(C)C)C(=O)N(C)CC(=O)N[C@@H](Cc2c[nH]c3ccccc23)C(=O)N[C@@H](CO)C(=O)N[C@@H](Cc2c[nH]c3ccccc23)C(=O)N1C [Example 5012] ({CH2CO}-F[NMeA]N[Pro(trans-4-F)]HL[Sar]WSW[NMeNle][NMeNle]RCG-NH2; thioether N-14) | < 7.52 | < 7.13 | – | – |
| CCCC[C@H]1C(=O)N(C)[C@@H](CCCC)C(=O)N[C@@H](Cc2cnc[nH]2)C(=O)N[C@H](C(=O)NCC(N)=O)CSCC(=O)N[C@@H](Cc2ccccc2)C(=O)N(C)[C@@H](C)C(=O)N[C@@H](CC(N)=O)C(=O)N2CCC[C@H]2C(=O)N[C@@H](Cc2cnc[nH]2)C(=O)N[C@@H](CC(C)C)C(=O)N(C)CC(=O)N[C@@H](Cc2c[nH]c3ccccc23)C(=O)N[C@@H](CO)C(=O)N[C@@H](Cc2c[nH]c3ccccc23)C(=O)N1C [Example 5013] ({CH2CO}-F[NMeA]NPHL[Sar]WSW[NMeNle][NMeNle]HCG-NH2; thioether N-14) | < 7.52 | < 7.13 | – | – |
| CCCC[C@H]1C(=O)N(C)[C@@H](CCCC)C(=O)N[C@@H](CC(C)C)C(=O)N[C@H](C(=O)NCC(N)=O)CSCC(=O)N[C@@H](Cc2ccccc2)C(=O)N(C)[C@@H](C)C(=O)N[C@@H](CC(N)=O)C(=O)N2CCC[C@H]2C(=O)N[C@@H](Cc2cnc[nH]2)C(=O)N[C@@H](CC(C)C)C(=O)N(C)CC(=O)N[C@@H](Cc2c[nH]c3ccccc23)C(=O)N[C@@H](CO)C(=O)N[C@@H](Cc2c[nH]c3ccccc23)C(=O)N1C [Example 5017] ({CH2CO}-F[NMeA]NPHL[Sar]WSW[NMeNle][NMeNle]LCG-NH2; thioether N-14) | – | – | 7.95 | 7.89 |
| CCCC[C@H]1C(=O)N(C)[C@@H](CCCC)C(=O)N[C@@H](CCCNC(=N)N)C(=O)N[C@H](C(=O)NCC(N)=O)CSCC(=O)N[C@@H](Cc2ccccc2)C(=O)N(C)[C@@H](C)C(=O)N[C@@H]([C@@H](C)O)C(=O)N2CCC[C@H]2C(=O)N[C@@H](Cc2cnc[nH]2)C(=O)N[C@@H](CC(C)C)C(=O)N(C)CC(=O)N[C@@H](Cc2c[nH]c3ccccc23)C(=O)N[C@@H](CO)C(=O)N[C@@H](Cc2c[nH]c3ccccc23)C(=O)N1C [Example 5020] ({CH2CO}-F[NMeA]TPHL[Sar]WSW[NMeNle][NMeNle]RCG-NH2; thioether N-14) | < 7.52 | < 7.13 | – | – |
| CCCC[C@H]1C(=O)N(C)[C@@H](CCCC)C(=O)N[C@@H]([C@@H](C)O)C(=O)N[C@H](C(=O)NCC(N)=O)CSCC(=O)N[C@@H](Cc2ccccc2)C(=O)N(C)[C@@H](C)C(=O)N[C@@H](CC(N)=O)C(=O)N2CCC[C@H]2C(=O)N[C@@H](Cc2cnc[nH]2)C(=O)N[C@@H](CC(C)C)C(=O)N(C)CC(=O)N[C@@H](Cc2c[nH]c3ccccc23)C(=O)N[C@@H](CO)C(=O)N[C@@H](Cc2c[nH]c3ccccc23)C(=O)N1C [Example 5021] ({CH2CO}-F[NMeA]NPHL[Sar]WSW[NMeNle][NMeNle]TCG-NH2; thioether N-14) | < 7.52 | < 7.13 | – | – |

Further lines, results first:

| pIC50 (Human PD-L1/PD-1; [2]) | pIC50 [1, 3] | pIC50 (Human PD-L1/PD-1; value given instead of cluster, read-out: HTRF IC50 value) | pIC50 ([1]; value given instead of cluster, read-out: CBA IC50 value) | SMILES |
| --- | --- | --- | --- | --- |
| 7.52 to 8.17 | 7.14 to 8.32 | – | – | CCCC[C@H]1C(=O)N(C)[C@@H](CCCC)C(=O)N[C@@H](CC(N)=O)C(=O)N[C@H](C(=O)NCC(N)=O)CSCC(=O)N[C@@H](Cc2ccccc2)C(=O)N(C)[C@@H](C)C(=O)N[C@@H](CC(N)=O)C(=O)N2CCC[C@H]2C(=O)N[C@@H](Cc2cnc[nH]2)C(=O)N[C@@H](CC(C)C)C(=O)N(C)CC(=O)N[C@@H](Cc2c[nH]c3ccccc23)C(=O)N[C@@H](CO)C(=O)N[C@@H](Cc2c[nH]c3ccccc23)C(=O)N1C [Example 5014] ({CH2CO}-F[NMeA]NPHL[Sar]WSW[NMeNle][NMeNle]NCG-NH2; thioether N-14) |
| 7.52 to 8.17 | 7.14 to 8.32 | – | – | CCCC[C@H]1C(=O)N(C)[C@@H](CCCC)C(=O)NCC(=O)N[C@H](C(=O)NCC(N)=O)CSCC(=O)N[C@@H](Cc2ccccc2)C(=O)N(C)[C@@H](C)C(=O)N[C@@H](CC(N)=O)C(=O)N2CCC[C@H]2C(=O)N[C@@H](Cc2cnc[nH]2)C(=O)N[C@@H](CC(C)C)C(=O)N(C)CC(=O)N[C@@H](Cc2c[nH]c3ccccc23)C(=O)N[C@@H](CO)C(=O)N[C@@H](Cc2c[nH]c3ccccc23)C(=O)N1C [Example 5015] ({CH2CO}-F[NMeA]NPHL[Sar]WSW[NMeNle][NMeNle]GCG-NH2; thioether N-14) |
| 7.52 to 8.17 | 7.14 to 8.32 | – | – | CCCC[C@H]1C(=O)N(C)[C@@H](CCCC)C(=O)N[C@@H](C(C)C)C(=O)N[C@H](C(=O)NCC(N)=O)CSCC(=O)N[C@@H](Cc2ccccc2)C(=O)N(C)[C@@H](C)C(=O)N[C@@H](CC(N)=O)C(=O)N2CCC[C@H]2C(=O)N[C@@H](Cc2cnc[nH]2)C(=O)N[C@@H](CC(C)C)C(=O)N(C)CC(=O)N[C@@H](Cc2c[nH]c3ccccc23)C(=O)N[C@@H](CO)C(=O)N[C@@H](Cc2c[nH]c3ccccc23)C(=O)N1C [Example 5016] ({CH2CO}-F[NMeA]NPHL[Sar]WSW[NMeNle][NMeNle]VCG-NH2; thioether N-14) |
| 7.52 to 8.17 | 7.14 to 8.32 | – | – | CCCC[C@H]1C(=O)N(C)[C@@H](CCCC)C(=O)N[C@@H]([C@@H](C)CC)C(=O)N[C@H](C(=O)NCC(N)=O)CSCC(=O)N[C@@H](Cc2ccccc2)C(=O)N(C)[C@@H](C)C(=O)N[C@@H](CC(N)=O)C(=O)N2CCC[C@H]2C(=O)N[C@@H](Cc2cnc[nH]2)C(=O)N[C@@H](CC(C)C)C(=O)N(C)CC(=O)N[C@@H](Cc2c[nH]c3ccccc23)C(=O)N[C@@H](CO)C(=O)N[C@@H](Cc2c[nH]c3ccccc23)C(=O)N1C [Example 5018] ({CH2CO}-F[NMeA]NPHL[Sar]WSW[NMeNle][NMeNle]ICG-NH2; thioether N-14) |
| 7.52 to 8.17 | 7.14 to 8.32 | – | – | CCCC[C@H]1C(=O)N(C)[C@@H](CCCC)C(=O)N[C@@H](CCCNC(=N)N)C(=O)N[C@H](C(=O)NCC(N)=O)CSCC(=O)N[C@@H](Cc2ccccc2)C(=O)N(C)[C@@H](C)C(=O)N[C@@H](CO)C(=O)N2CCC[C@H]2C(=O)N[C@@H](Cc2cnc[nH]2)C(=O)N[C@@H](CC(C)C)C(=O)N(C)CC(=O)N[C@@H](Cc2c[nH]c3ccccc23)C(=O)N[C@@H](CO)C(=O)N[C@@H](Cc2c[nH]c3ccccc23)C(=O)N1C [Example 5019] ({CH2CO}-F[NMeA]SPHL[Sar]WSW[NMeNle][NMeNle]RCG-NH2; thioether N-14) |
| 7.52 to 8.17 | 8.33 to 9.80 | – | – | CCCC[C@H]1C(=O)N(C)[C@@H](CCCC)C(=O)N[C@@H](CCCNC(=N)N)C(=O)N[C@H](C(=O)NCC(N)=O)CSCC(=O)N[C@@H](Cc2ccc(O)cc2)C(=O)N(C)[C@@H](C)C(=O)N[C@@H](CC(N)=O)C(=O)N2CCC[C@H]2C(=O)N[C@@H](Cc2cnc[nH]2)C(=O)N[C@@H](CCN)C(=O)N2C[C@H](O)C[C@H]2C(=O)N[C@@H](Cc2c[nH]c3ccccc23)C(=O)N[C@@H](CO)C(=O)N[C@@H](Cc2c[nH]c3ccccc23)C(=O)N1C [Example 5022] ({CH2CO}-Y[NMeA]NPH[Dab][Hyp]WSW[NMeNle][NMeNle]RCG-NH2; thioether N-14) |
